# Patent publication US11795170B2 (Genentech, Inc., priority 2016, dated 2023)
# Legend:
# [1] = target: T1, isolated recombinant JAK1 kinase domain (Homo sapiens, UniProt P23458); assay: JAK1 enzyme assay (Caliper LabChip, peptide phosphorylation); format: biochemical; details: 1.5 nM JAK1, 25 μM ATP, 22° C., 30 minutes; Morrison tight binding model
# T1 construct: The activity of the isolated recombinant JAK1 and JAK2 kinase domain was measured
# Description: (§1) JAK Enzyme Assays were Carried Out as Follows:
# (§2) The activity of the isolated recombinant JAK1 and JAK2 kinase domain was measured by monitoring phosphorylation of a peptide derived from JAK3 (Val-Ala-Leu-Val-Asp-Gly-Tyr-Phe-Arg-Leu-Thr-Thr, fluorescently labeled on the N-terminus with 5-carboxyfluorescein) using the Caliper LabChip® technology (Caliper Life Sciences, Hopkinton, Mass.). To determine inhibition constants (K), compounds were diluted serially in DMSO and added to 50 μL kinase reactions containing purified enzyme (1.5 nM JAK1, or 0.2 nM JAK2), 100 mM HEPES buffer (pH 7.2), 0.015% Brij-35, 1.5 μM peptide substrate, ATP (25 μM), 10 mM MgCl2, 4 mM DTT at a final DMSO concentration of 2%. Reactions were incubated at 22° C. in 384-well polypropylene microtiter plates for 30 minutes and then stopped by addition of 25 μL of an EDTA containing solution (100 mM HEPES buffer (pH 7.2), 0.015% Brij-35, 150 mM EDTA), resulting in a final EDTA concentration of 50 mM. After termination of the kinase reaction, the proportion of phosphorylated product was determined as a fraction of total peptide substrate using the Caliper LabChip® 3000 according to the manufacturer's specifications. Ki values were then determined using the Morrison tight binding model (Morrison, J. F., Biochim. Biophys. Acta. 185:269-296 (1969); William, J. W. and Morrison, J. F., Meth. Enzymol., 63:437-467 (1979)) modified for ATP-competitive inhibition [Ki=Ki,app/(1+[ATP]/Km,app)].
# [2] = target: T2, isolated recombinant JAK2 kinase domain (Homo sapiens, UniProt O60674); assay: JAK2 enzyme assay (Caliper LabChip, peptide phosphorylation); format: biochemical; details: 0.2 nM JAK2, 25 μM ATP, 22° C., 30 minutes; Morrison tight binding model
# T2 construct: The activity of the isolated recombinant JAK1 and JAK2 kinase domain was measured
# T2 sequence (O60674 849-1124): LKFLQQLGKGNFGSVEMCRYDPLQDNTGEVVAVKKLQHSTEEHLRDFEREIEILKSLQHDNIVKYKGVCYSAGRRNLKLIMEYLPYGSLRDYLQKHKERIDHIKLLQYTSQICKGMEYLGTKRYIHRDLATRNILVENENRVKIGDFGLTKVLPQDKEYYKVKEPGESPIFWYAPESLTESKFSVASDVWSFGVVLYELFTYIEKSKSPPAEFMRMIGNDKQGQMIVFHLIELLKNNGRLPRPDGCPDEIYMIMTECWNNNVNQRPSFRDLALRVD
# Description: as §1, §2
# [3] = tested on: JAK1-dependent STAT6 phosphorylation downstream of IL-13 stimulation; assay: JAK1 pathway assay in BEAS-2B cells (IL-13 stimulated pSTAT6, MSD); format: cell-based; details: BEAS-2B human bronchial epithelial cells, 1 hr compound incubation, IL-13 for 15 min; read-out: IL13-pSTAT6 BEAS2B IC50
# Description: JAK1 Pathway Assay in Cell Lines was Carried Out as Follows:
# Inhibitor potency (EC50) was determined in cell-based assays designed to measure JAK1 dependent STAT phosphorylation. As noted above, inhibition of IL-4, IL-13, and IL-9 signalling by blocking the Jak/Stat signaling pathway can alleviate asthmatic symptoms in pre-clinical lung inflammation models (Mathew et al., 2001, J Exp Med 193(9): 1087-1096; Kudlacz et. al., 2008, Eur J. Pharmacol 582(1-3): 154-161).
# In one assay approach, TF-1 human erythroleukemia cells obtained from the American Type Culture Collection (ATCC; Manassas, Va.) were used to measure JAK1-dependent STAT6 phosphorylation downstream of IL-13 stimulation. Prior to use in the assays, TF-1 cells were starved of GM-CSF overnight in OptiMEM medium (Life Technologies, Grand Island, N.Y.) supplemented with 0.5% charcoal/dextran stripped fetal bovine serum (FBS), 0.1 mM non-essential amino acids (NEAA), and 1 mM sodium pyruvate. The assays were run in 384-well plates in serum-free OptiMEM medium using 300,000 cells per well. In a second assay approach, BEAS-2B human bronchial epithelial cells obtained from ATCC were plated at 100,000 cells per well of a 96-well plate one day prior to the experiment. The BEAS-2B assay was run in complete growth medium (bronchial epithelial basal medium plus bulletkit; Lonza; Basel, Switzerland).
# Test compounds were serially diluted 1:2 in DMSO and then diluted 1:50 in medium just before use. Diluted compounds were added to the cells, for a final DMSO concentration of 0.2%, and incubated for 30 min (for the TF-1 assay) or 1 hr (for the BEAS-2B assay) at 37° C. Then, cells were stimulated with human recombinant cytokine at their respective EC90 concentrations, as previously determined for each individual lot. Cells were stimulated with IL-13 (R&D Systems, Minneapolis, Minn.) for 15 min at 37° C. The TF-1 cell reactions were stopped by the direct addition of 10× lysis buffer (Cell Signaling Technologies, Danvers, Mass.), whereas the BEAS-2B cell incubations were halted by the removal of medium and addition of 1× lysis buffer. The resultant samples were frozen in the plates at −80° C. Compound mediated inhibition of STAT6 phosphorylation was measured in the cell lysates using MesoScale Discovery (MSD) technology (Gaithersburg, Md.). EC50 values were determined as the concentration of compound required for 50% inhibition of STAT phosphorylation relative to that measured for the DMSO control.
# T1 sequence (P23458 875-1153): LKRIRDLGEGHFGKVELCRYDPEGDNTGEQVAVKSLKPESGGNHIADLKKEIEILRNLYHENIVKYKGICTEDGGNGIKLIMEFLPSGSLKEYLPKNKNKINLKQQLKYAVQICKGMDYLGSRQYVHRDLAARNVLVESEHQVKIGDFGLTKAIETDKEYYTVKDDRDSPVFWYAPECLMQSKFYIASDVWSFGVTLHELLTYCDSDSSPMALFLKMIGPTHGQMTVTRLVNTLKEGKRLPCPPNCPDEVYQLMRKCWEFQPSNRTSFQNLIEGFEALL
Ki [1] [nM],Ki [2] [nM],IC50 [3] [nM],SMILES
0.33,0.96,74,"CN(C1CCN(C(=O)Cn2cc(NC(=O)c3cnc4cccnn34)c(-c3cc(Cl)ccc3OC(F)F)n2)CC1)C1COC1 [Example 1, N-[3-[5-chloro-2-(difluoromethoxy)phenyl]-1-(2-[4-[methyl(oxetan-3-yl)amino]piperidin-1-yl]-2-oxoethyl)-1H-pyrazol-4-yl]imidazo[1,2-b]pyridazine-3-carboxamide]"
1.5,0.2,16,"O=C(Nc1c[nH]nc1-c1cc(Cl)ccc1OC(F)F)c1cnc2ccc(Cl)nn12 [Example 2, 6-chloro-N-[3-[5-chloro-2-(difluoromethoxy)phenyl]-1H-pyrazol-4-yl]imidazo[1,2-b]pyridazine-3-carboxamide]"
0.29,0.076,21,"C#Cc1ccc2ncc(C(=O)Nc3c[nH]nc3-c3cc(Cl)ccc3OC(F)F)n2n1 [Example 3, N-[3-[5-chloro-2-(difluoromethoxy)phenyl]-1H-pyrazol-4-yl]-6-ethynyl-imidazo[1,2-b]pyridazine-3-carboxamide]"
0.36,1.2,20,"O=C(Nc1cn(CC(=O)N2CCC(N3CCOCC3)CC2)nc1-c1cc(Cl)ccc1OC(F)F)c1cnc2cccnn12 [Example 4, N-[3-[5-chloro-2-(difluoromethoxy)phenyl]-1-[2-[4-(morpholin-4-yl)piperidin-1-yl]-2-oxoethyl]-1H-pyrazol-4-yl]imidazo[1,2-b]pyridazine-3-carboxamide]"
0.56,2.4,110,"N#CC1(CNC2CCN(C(=O)Cn3cc(NC(=O)c4cnc5cccnn45)c(-c4cc(Cl)ccc4OC(F)F)n3)CC2)CC1 [Example 5, N-[3-[5-chloro-2-(difluoromethoxy)phenyl]-1-[2-(4-[[(1-cyanocyclopropyl)-methyl]amino]piperidin-1-yl)-2-oxoethyl]-1H-pyrazol-4-yl]imidazo[1,2-b]pyridazine-3-carboxamide]"
0.18,0.063,4.5,"O=C(Nc1c[nH]nc1-c1cc(Cl)ccc1OC(F)F)c1cnc2cccnn12 [Example 6, N-[3-[5-chloro-2-(difluoromelhoxy)phenyl]-1H-pyrazol-4-yl]imidazo[1,2-b]pyridazine-3-carboxamide]"
0.72,0.53,34,"NCCn1cc(NC(=O)c2cnc3cccnn23)c(-c2cc(Cl)ccc2OC(F)F)n1 [Example 7, N-[1-(2-aminoethyl)-3-[5-chloro-2-(difluoromethoxy)phenyl]-1H-pyrazol-4-yl]imidazo[1,2-b]pyridazine-3-carboxamide]"
0.28,0.14,6,"Cn1cc(NC(=O)c2cnc3cccnn23)c(-c2cc(Cl)ccc2OC(F)F)n1 [Example 8, N-[3-[5-chloro-2-(difluoromethoxy)phenyl]-1-methyl-1H-pyrazol-4-yl]imidazo[1,2-b]pyridazine-3-carboxamide]"
0.29,0.12,11,"O=C(Nc1c[nH]nc1-c1cc(SC2CC2)ccc1OC(F)F)c1cnc2cccnn12 [Example 9, N-[3-[5-(cyclopropylsulfanyl)-2-(difluoromethoxy)phenyl]-1H-pyrazol-4-yl]imidazo[1,2-b]pyridazine-3-carboxamide]"
0.41,0.26,7.5,"CC(C)Sc1ccc(OC(F)F)c(-c2n[nH]cc2NC(=O)c2cnc3cccnn23)c1 [Example 10, N-[3-[2-(difluoromethoxy)-5-(propan-2-ylsulfanyl)phenyl]-1H-pyrazol-4-yl]imidazo[1,2-b]pyridazine-3-carboxamide]"
0.51,0.69,200,CSc1ccc(OC(F)F)c(-c2nn(CC(=O)N3CCC(CN4CCN(CC(=O)N(C)C)CC4)CC3)cc2NC(=O)c2cnc3cccnn23)c1 [Example 11]
0.65,2,150,"O=C(Nc1cn(CC(=O)N2CCN(CCN3CCOCC3)CC2)nc1-c1cc(Cl)ccc1OC(F)F)c1cnc2cccnn12 [Example 12, N-[3-[5-chloro-2-(difluoromethoxy)phenyl]-1-(2-[4-[2-(morpholin-4-yl)ethyl]piperazin-1-yl]-2-oxoethyl)-1H-pyrazol-4-yl]imidazo[1,2-b]pyridazine-3-carboxamide]"

SMILES,Ki [1] [nM],Ki [2] [nM],IC50 [3] [nM]
"CSc1ccc(OC(F)F)c(-c2n[nH]cc2NC(=O)c2cnc3cccnn23)c1 [Example 13, N-[3-[2-(difluoromethoxy)-5-(methylsulfanyl)phenyl]-1H-pyrazol-4-yl]imidazo[1,2-b]pyridazine-3-carboxamide]",0.11,0.05,2.9
